For this assay, the target named is hQC (Homo sapiens, UniProt Q16769). Briefly: Fluorometric (fluorescent) assay of hQC inhibition, IC50. In kind it is biochemical. A digest of the protocol:
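Two coupled fluorometric formats at 30° C, pH 8.0 Tris/HCl with EDTA: H-Gln-βNA at 0.2 mM read at 320/410 nm, or H-Gln-AMC at varied levels read at 380/460 nm, each started by adding QC.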

Like-named read-outs stand apart in the source and are kept apart here.

Sequence of hQC (Q16769 29-361): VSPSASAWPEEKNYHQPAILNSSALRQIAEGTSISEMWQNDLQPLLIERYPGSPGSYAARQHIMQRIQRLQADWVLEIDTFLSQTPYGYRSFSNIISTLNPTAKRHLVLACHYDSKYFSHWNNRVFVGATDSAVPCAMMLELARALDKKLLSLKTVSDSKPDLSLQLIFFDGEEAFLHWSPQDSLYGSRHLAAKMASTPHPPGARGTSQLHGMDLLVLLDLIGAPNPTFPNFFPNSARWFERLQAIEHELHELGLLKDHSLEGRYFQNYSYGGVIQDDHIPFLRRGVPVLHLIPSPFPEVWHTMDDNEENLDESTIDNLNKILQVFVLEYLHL

As usually defined, the IC50 is the midpoint of a concentration-inhibition curve. For `C1=COC(C(Nc2ccc3nc[nH]c3c2)c2nnnn2CCc2cccs2)CC1` (centres unmarked) [compound 182, (1H-Benzoimidazol-5-yl)-{(3,4-dihydro-2H-pyran-2-yl)-[1-(2-thiophen-2-yl-ethyl)-1H-tetrazol-5-yl]-methyl}-amine], the IC50 (hQC inhibition, read-out: IC50) worked out at 5.8 µM.
As for `COc1ccc(C(Nc2ccc3[nH]cnc3c2)c2nnnn2Cc2ccc(Cl)cc2)cc1F` (centres unmarked) [compound 125, (1H-Benzoimidazol-5-yl)-[[1-(4-chloro-benzyl)-1H-tetrazol-5-yl]-(3-fluoro-4-methoxy-phenyl)-methyl]-amine], the IC50 (hQC inhibition, read-out: IC50) came to 3.1 µM.
Consider `CCCCn1nnnc1C(NCCCn1ccnc1)c1cc(C)ccc1O` (centres unmarked) [compound 19, 2[(1-Butyl-1H-tetrazol-5-yl)-(3-imidazol-1-yl-propylamino)-mehtyl]-4-methyl-phenol], for which the IC50 (read-out: IC50) was determined as 2.2 µM.
Take `Clc1ccccc1Cn1nnnc1C(Nc1ccc2[nH]cnc2c1)c1cccnc1` (centres unmarked) [compound 135, (1H-Benzoimidazol-5-yl)-{[1-(2-chloro-benzyl)-1H-tetrazol-5-yl]-pyridin-3-yl-methyl}-amine]: the IC50 (hQC inhibition, read-out: IC50) was determined as 8.5 µM.
For the molecule `C1=CO[C@H](C(NCCCn2ccnc2)c2nnnn2C2CC2)CC1` (stereo partly drawn) [compound 71, [(S)-(1-Cyclopropyl-1H-tetrazol-5-yl)-3,4-dihydro-2H-pyran-2-yl-methyl]-(3-imidazol-1-yl-propyl)-amine], under “read-out: IC50”, the IC50 was found to be 9.4 µM.
Take `COC(=O)c1cccc(C(Nc2ccc3[nH]cnc3c2)c2nnnn2Cc2ccc(Cl)cc2)c1` (centres unmarked) [compound 85, 3-{(1H-Benzoimidazol-5-ylamino)-[1-(4-chloro-benzyl)-1H-tetrazol-5-yl]-methyl}-benzoic acid methyl ester]: the IC50 (read-out: IC50) was 1.3 µM.
On to `CCOC(=O)C1CCCCC1n1nnnc1C(Nc1ccc2[nH]cnc2c1)c1cccc(OC)c1` (centres unmarked) [compound 192], for which the IC50 (hQC inhibition, read-out: IC50) worked out at 8.5 µM.
For the molecule `Fc1ccc2c(C(Nc3ccc4[nH]cnc4c3)c3nnnn3C3CCCCC3)c[nH]c2c1` (centres unmarked) [compound 81, (1H-Benzoimidazol-5-yl)-[(1-cyclohexyl-1H-tetrazol-5-yl)-(6-fluoro-1H-indol-3-yl)-methyl]-amine], where the note is “read-out: IC50”, the IC50 came to 3.1 µM.
With `Brc1cc(Br)cc(C(Nc2ccc3[nH]cnc3c2)c2nnnn2-c2ccccc2OCc2ccccc2)c1` (centres unmarked) [compound 180, (1H-Benzoimidazol-5-yl)-[[1-(2-benzyloxy-phenyl)-1H-tetrazol-5-yl]-(3,5-dibromo-phenyl)-methyl]-amine], the IC50 (hQC inhibition, read-out: IC50) turned out to be 4.9 µM.
On to `CC(C)(C)OC(=O)Cn1nnnc1C(Nc1ccc2[nH]cnc2c1)c1ccc(Br)cc1` (centres unmarked) [compound 87, {5-[(1H-Benzoimidazol-5-ylamino)-(4-bromo-phenyl)-methyl]-tetrazol-1-yl}-acetic acid tert-butyl ester], for which, for the setting “read-out: IC50”, the IC50 stood at 1.3 µM.
Regarding `Cc1ccc(O)c(C(NCCCn2ccnc2)c2nnnn2C2CC2)c1` (centres unmarked) [Compound 68, 2-[(1-Cyclopropyl-1H-tetrazol-5-yl)-(3-imidazol-1-yl-propylamino)-methyl]-4-methyl-phenol], the IC50 by setting is: (purified compound from preparative synthesis, fluorescent assay, read-out: IC50 hQC) 0.668 µM; (read-out: IC50) 0.4 µM.
For `Oc1cccc2ccc(C(NCCCn3ccnc3)c3nnnn3C3CCCC3)nc12` (centres unmarked) [compound 25, 2-[(1-Cyclopentyl-1H-tetrazol-5-yl)-(3-imidazol-1-yl-propylamino)-methyl]-quinolin-8-ol], for the setting “read-out: IC50”, the IC50 is 2.2 µM.
With `C1=COC(C(Nc2ccc3[nH]cnc3c2)c2nnnn2C2CCCCC2)CC1` (centres unmarked) [compound 114], the IC50 (read-out: IC50) is 6.7 µM.
For `c1ccc2c(C(Nc3ccc4[nH]cnc4c3)c3nnnn3CC3CCCO3)csc2c1` (centres unmarked) [compound 78], the IC50 (read-out: IC50) was found to be 1.3 µM.
As for `COc1ccc(C(Nc2ccc3[nH]cnc3c2)c2nnnn2Cc2cccnc2)cc1Br` (centres unmarked) [compound 142, (1H-Benzoimidazol-5-yl)-[(3-bromo-4-methoxy-phenyl)-(1-pyridin-3-ylmethyl-1H-tetrazol-5-yl)-methyl]-amine], for the setting “hQC inhibition, read-out: IC50”, the IC50 is 0.4 µM.
Consider `COc1ccc(C(Nc2ccc3[nH]cnc3c2)c2nnnn2C2CCCCC2)cc1` (centres unmarked) [compound 72, (1H-Benzoimidazol-5-yl)-[(1-cyclohexyl-1H-tetrazol-5-yl)-(4-methoxy-phenyl)-methyl]-amine], for which, where the note is “read-out: IC50”, the IC50 came to 2.2 µM.
`Brc1cc(Br)cc(C(Nc2ccc3[nH]cnc3c2)c2nnnn2CCCCc2ccccc2)c1` (centres unmarked) [compound 189, (1H-Benzoimidazol-5-yl)-{(3,5-dibromo-phenyl)-[1-(4-phenyl-butyl)-1H-tetrazol-5-yl]-methyl}-amine]: the IC50 (hQC inhibition, read-out: IC50) was found to be 3.1 µM.
For `Cc1cc(C(Nc2ccc3[nH]cnc3c2)c2nnnn2CC2CCCO2)cc(C)c1O` (centres unmarked) [compound 131, 4-{(1H-Benzoimidazol-5-ylamino)-[1-(tetrahydro-furan-2-ylmethyl)-1H-tetrazol-5-yl]-methyl}-2,6-dimethyl-phenol], the IC50 (hQC inhibition, read-out: IC50) turned out to be 6.7 µM.
For `c1cn(CCCNC(c2ccc3[nH]ccc3c2)c2nnnn2C2CCCC2)cn1` (centres unmarked) [compound 26], for the setting “read-out: IC50”, the IC50 was 3.1 µM.
With `Cc1cc(C(Nc2ccc3[nH]cnc3c2)c2nnnn2CC2COC(C)(C)O2)cc(C)c1O` (centres unmarked) [compound 165, 4-{(1H-Benzoimidazol-5-ylamino)-[1-(2,2-dimethyl-[1,3]dioxolan-4-ylmethyl)-1H-tetrazol-5-yl]-methyl}-2,6-dimethyl-phenol], the half-inhibitory concentration (IC50) (hQC inhibition, read-out: IC50) came to 5.8 µM.
For the molecule `Cc1ccc(C(C)CC(Nc2ccc3[nH]cnc3c2)c2nnnn2C2CCCCC2)o1` (centres unmarked) [compound 96, (1H-Benzoimidazol-5-yl)-[1-(1-cyclohexyl-1H-tetrazol-5-yl)-3-(5-methyl-furan-2-yl)-butyl]-amine], under “read-out: IC50”, the IC50 is 4.9 µM.
For `c1ccc2oc(C(Nc3ccc4[nH]cnc4c3)c3nnnn3CC3CCCO3)cc2c1` (centres unmarked) [compound 101, {Benzofuran-2-yl-[1-(tetrahydro-furan-2-ylmethyl)-1H-tetrazol-5-yl]-methyl}-(1H-benzoimidazol-5-yl)-amine], the IC50 (read-out: IC50) was found to be 4.9 µM.
With `Brc1cc(Br)cc(C(Nc2ccc3[nH]cnc3c2)c2nnnn2CC2CCCO2)c1` (centres unmarked) [compound 170, (1H-Benzoimidazol-5-yl)-{(3,5-dibromo-phenyl)-[1-(tetrahydro-furan-2-ylmethyl)-1H-tetrazol-5-yl]-methyl}-amine], the IC50 (hQC inhibition, read-out: IC50) was 4.9 µM.
Turning to `COC(=O)Cn1nnnc1C(NCCCn1ccnc1)c1ccc(F)c(C#N)c1` (centres unmarked) [compound 53, {5-[(3-Cyano-4-fluoro-phenyl)-(3-imidazol-1-yl-propylamino)-methyl]-tetrazol-1-yl}-acetic methyl ester], for the setting “read-out: IC50”, the IC50 is 4 µM.
In the case of `CC(C)(C)n1nnnc1C(Nc1ccc2[nH]cnc2c1)c1csc2ccccc12` (centres unmarked) [compound 123], the IC50 (hQC inhibition, read-out: IC50) was found to be 8.5 µM.
Turning to `Oc1ccc(Cl)cc1C(Nc1ccc2[nH]cnc2c1)c1nnnn1C1CCCCC1` (centres unmarked) [compound 193, 2-[(1H-Benzoimidazol-5-ylamino)-(1-cyclohexyl-1H-tetrazol-5-yl)-methyl]-4-chloro-phenol], the IC50 (hQC inhibition, read-out: IC50) came out at 5.8 µM.
Turning to `CC(CC(Nc1ccc2[nH]cnc2c1)c1nnnn1C(C)(C)C)c1ccccc1` (centres unmarked) [compound 106, (1H-Benzoimidazol-5-yl)-[1-(1-tert-butyl-1H-tetrazol-5-yl)-3-phenyl-butyl]-amine], the IC50 (read-out: IC50) is 6.7 µM.
On to `COc1ccc(C(Nc2ccc3[nH]cnc3c2)c2nnnn2CC(=O)OC(C)(C)C)cc1` (centres unmarked) [compound 172, {5-[(1H-Benzoimidazol-5-ylamino)-(4-methoxy-phenyl)-methyl]-tetrazol-1-yl}-acetic acid tert-butyl ester], for which, for the setting “hQC inhibition, read-out: IC50”, the IC50 was 4 µM.

These data come from patent publication US7741354B2, “Inhibitors of glutaminyl cyclase” (Probiodrug AG, priority 2006, dated 2010).
